± gives the expanded uncertainty stated by the source.
Experiments:
[1] = Liquid
[2] = excess molar enthalpy (molar enthalpy of mixing); xn = mol fraction of the nth substance listed; details: 298.15 K, 101.3 kPa, Liquid, Flow calorimetry

In the case of `CCCCBr` [1-bromobutane], the “vapor or sublimation pressure” value ([1]; 278.15 K) is reported as 1.86 ± 0.022 kPa, the “vapor or sublimation pressure” value ([1]; 283.15 K) is reported as 2.48 ± 0.023 kPa and the “vapor or sublimation pressure” value ([1]; 288.15 K) is reported as 3.265 ± 0.026 kPa. For the same compound, the “vapor or sublimation pressure” value ([1]; 293.15 K) was 4.261 ± 0.029 kPa, the “vapor or sublimation pressure” value ([1]; 298.15 K) was 5.506 ± 0.033 kPa and the “vapor or sublimation pressure” value ([1]; 303.15 K) was 7.039 ± 0.038 kPa. The “vapor or sublimation pressure” value ([1]; 308.15 K) was 8.899 ± 0.043 kPa, the “vapor or sublimation pressure” value ([1]; 313.15 K) was 11.15 ± 0.05 kPa and the “vapor or sublimation pressure” value ([1]; 318.15 K) was 13.87 ± 0.059 kPa. The “vapor or sublimation pressure” value ([1]; 323.15 K) was 17.09 ± 0.069 kPa.

For `CCCCBr` [1-bromobutane] + CCCCCCCCO, the excess molar enthalpy ([2]; x2 = 0.025) was 0.087 ± 0.00191 kcal/mol, the excess molar enthalpy ([2]; x2 = 0.0571) was 0.144 ± 0.00311 kcal/mol and the excess molar enthalpy ([2]; x2 = 0.1224) was 0.201 ± 0.0043 kcal/mol. For the same compound, the excess molar enthalpy ([2]; x2 = 0.1949) was 0.233 ± 0.00502 kcal/mol, the excess molar enthalpy ([2]; x2 = 0.2361) was 0.244 ± 0.00526 kcal/mol and the excess molar enthalpy ([2]; x2 = 0.276) was 0.25 ± 0.00526 kcal/mol. For the same compound, the excess molar enthalpy ([2]; x2 = 0.3205) was 0.253 ± 0.0055 kcal/mol, the excess molar enthalpy ([2]; x2 = 0.367) was 0.252 ± 0.0055 kcal/mol and the excess molar enthalpy ([2]; x2 = 0.4661) was 0.24 ± 0.00526 kcal/mol. It also gave an excess molar enthalpy ([2]; x2 = 0.5784) of 0.212 ± 0.00454 kcal/mol, an excess molar enthalpy ([2]; x2 = 0.7064) of 0.165 ± 0.00359 kcal/mol and an excess molar enthalpy ([2]; x2 = 0.8484) of 0.0956 ± 0.00215 kcal/mol. It also gave an excess molar enthalpy ([2]; x2 = 0.9311) of 0.0488 ± 0.0012 kcal/mol.

With `CCCCCCCCCCO` [decan-1-ol] the “vapor or sublimation pressure” value ([1]; 308.15 K, Closed cell (Static) method) was 0.001 kPa, the “vapor or sublimation pressure” value ([1]; 313.15 K, Closed cell (Static) method) was 0.004 kPa and the “vapor or sublimation pressure” value ([1]; 318.15 K, Closed cell (Static) method) was 0.007 ± 0.01 kPa. The “vapor or sublimation pressure” value ([1]; 323.15 K, Closed cell (Static) method) was 0.011 ± 0.01 kPa.

In the case of `CCCCCCCCO` [octan-1-ol], the “vapor or sublimation pressure” value ([1]; 288.15 K) is reported as 0.001 kPa, the “vapor or sublimation pressure” value ([1]; 293.15 K) is reported as 0.003 kPa and the “vapor or sublimation pressure” value ([1]; 298.15 K) is reported as 0.007 ± 0.01 kPa. For the same compound, the “vapor or sublimation pressure” value ([1]; 303.15 K) was 0.011 ± 0.01 kPa, the “vapor or sublimation pressure” value ([1]; 308.15 K) was 0.019 ± 0.01 kPa and the “vapor or sublimation pressure” value ([1]; 313.15 K) was 0.031 ± 0.01 kPa. The “vapor or sublimation pressure” value ([1]; 318.15 K) was 0.051 ± 0.01 kPa and the “vapor or sublimation pressure” value ([1]; 323.15 K) was 0.08 ± 0.01 kPa.

From the NIST ThermoML archive (doi:10.1021/je030168a)
